# Experiment: Paper example: vitamin D3 supplementation with daily light and fixed orthodontic appliance
# Format: in vivo, human
# Details: passive phase; continued vitamin D3 2000 to 12,000 IU orally per day
# Method: In one example, an adult patient's Vitamin D3 blood-serum level is measured during their routine orthodontic-examination and -records appointment. Laboratory results can indicate that the patient's vitamin D3 serum levels are at 20 ng/ml, which is considered to be deficient and abnormal. In this example, the patient's orthodontic diagnosis is Class I mild crowding with 4 mm of crowding on the upper arch and 4 mm on the lower arch. An orthodontic treatment plan can be formulated to comprise the installation of a fixed orthodontic appliance with some mild expansion of the upper and lower arches.
# In this example, the patient self-administers oral oil-based vitamin D3 capsules at an amount of 6000 IU per day for 3 months to increase and normalize their vitamin D3 serum levels. Laboratory serum testing can optionally be performed again after 3 months of vitamin D3 supplementation. The patient can maintains or adjusts their oral dose of vitamin D3 based on their subsequent lab results. It should be understood that there are a number of alternative oral and/or systemic dosing protocols for vitamin D administration that could be followed to achieve similar results. The dosing protocol outlined above is merely one of many approaches.
# In this example, orthodontic treatment can start either after the 3 month period or no more than about three months prior. […]
smiles,measurement,value
C=C1CC[C@H](O)C/C1=C/C=C1\CCC[C@]2(C)[C@@H]([C@H](C)CCCC(C)C)CC[C@@H]12 [vitamin D3],alveolar bone density around the teeth,increased
